Results: ChEMBL document CHEMBL4371082
The source made the active and inactive calls.

How the values were obtained:
[1] = Antioxidant activity assessed as DPPH free radical scavenging activity at 20 uM; format: functional
[2] = Antioxidant activity assessed as ABTS radical scavenging activity at 20 uM measured at 30 sec interval over 60 mins; format: functional
Saccharomyces cerevisiae [3] = experiment: Protection against copy of c-myc-tagged human bax gene induced oxidative stress in yeast BC300 assessed as reactive oxygen species level in SG liquid medium by dihydroethidium dye based fluorescence assay; format: functional, organism-based
Saccharomyces cerevisiae [4] = experiment: Protection against copy of c-myc-tagged human bax gene induced mitochondrial dysfunction in yeast BC300 assessed as prevention of mitochondrial membrane potential loss in SG liquid medium by JC-10 dye based fluorescence assay; format: functional, organism-based
Saccharomyces cerevisiae [5] = experiment: Protection against 3-copies of HA-tagged human alpha-syn gene induced oxidative stress in yeast BC300 assessed as reduction in reactive oxygen species level in SG solid agar medium by dihydroethidium dye based fluorescence assay; format: functional, organism-based
Saccharomyces cerevisiae [6] = experiment: Protection against 3-copies of HA-tagged human alpha-syn gene induced mitochondrial dysfunction in yeast BC300 assessed as prevention of mitochondrial membrane potential loss in SG solid agar medium by JC-10 dye based fluorescence assay; format: functional, organism-based

Measured: Activity

O=C1O[C@H]([C@@H](O)CO)C(O)=C1O
active: [1] | [2]

COc1ccc([C@@H](O)CNC(=O)/C=C/c2ccccc2)cc1
active: Saccharomyces cerevisiae [3] | Saccharomyces cerevisiae [4] | [1] | [2] | Saccharomyces cerevisiae [5] | Saccharomyces cerevisiae [6]
